Experiments:
Format in all cases: in vivo
kochia (Bassia scoparia) [1] = test: Test A preemergence, kochia; conditions: Preemergence, 0 to 100 scale (0 no effect, 100 complete control)
Outline: (§1)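 Formulated with a surfactant in a non-phytotoxic solvent, compounds are applied to loam–sand pots, either to bare soil immediately after seeding (preemergence) or to seedlings of 2 to 10 cm bearing one to two leaves (postemergence).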

[2] = system: barnyardgrass (Echinochloa crus-galli); test: Test A preemergence, barnyardgrass; conditions: Preemergence, 0 to 100 scale (0 no effect, 100 complete control)
Outline: as §1

[3] = system: Ryegrass, Italian (Italian ryegrass, Lolium multiflorum); test: Test A postemergence, Ryegrass, Italian; conditions: Postemergence, 0 to 100 scale (0 no effect, 100 complete control); for Plant response rating, Ryegrass, Italian: 125 g ai/ha; for Ryegrass, Italian plant response rating: 500 g ai/ha, visual injury vs untreated controls after approx. 10 days
Outline: as §1

corn (Zea mays) = test: Test A postemergence, corn; conditions: Postemergence, 0 to 100 scale (0 no effect, 100 complete control); for Plant response rating, Corn: 125 g ai/ha; for Corn plant response rating: 500 g ai/ha, visual injury vs untreated controls after approx. 10 days
Outline: as §1

[4] = system: barnyardgrass (Echinochloa crus-galli); test: Test A postemergence, barnyardgrass; conditions: Postemergence, 0 to 100 scale (0 no effect, 100 complete control); for Plant response rating, Barnyardgrass: 125 g ai/ha; for Barnyardgrass plant response rating: 500 g ai/ha, visual injury vs untreated controls after approx. 10 days
Outline: (§2)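 Postemergence ratings come from foliar sprays onto one- to two-leaf plants of 2 to 10 cm grown in loam/sand; preemergence ratings come from a directed spray onto the soil of newly seeded pots. Formulation was a surfactant-containing non-phytotoxic solvent blend.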

[5] = system: ragweed (common ragweed, Ambrosia artemisiifolia); test: Test A postemergence, ragweed; conditions: Postemergence, 0 to 100 scale (0 no effect, 100 complete control); for Plant response rating, Ragweed: 125 g ai/ha; for Ragweed plant response rating: 500 g ai/ha, visual injury vs untreated controls after approx. 10 days
Outline: as §1

[6] = system: pigweed (Amaranthus retroflexus); test: Test A preemergence, pigweed; conditions: 0 to 100 scale (0 no effect, 100 complete control)
Outline: as §2

[7] = system: blackgrass (Alopecurus myosuroides); test: Test A postemergence, blackgrass; conditions: Postemergence, 0 to 100 scale (0 no effect, 100 complete control); for Plant response rating, Blackgrass: 125 g ai/ha; for Blackgrass plant response rating: 500 g ai/ha, visual injury vs untreated controls after approx. 10 days
Outline: as §1

kochia (Bassia scoparia) [8] = test: Test A postemergence, kochia; conditions: Postemergence, 0 to 100 scale (0 no effect, 100 complete control); for Plant response rating, Kochia: 125 g ai/ha; for Kochia plant response rating: 500 g ai/ha, visual injury vs untreated controls after approx. 10 days
Outline: as §1

[9] = system: wheat (Triticum aestivum); test: Test A postemergence, wheat; conditions: Postemergence, 0 to 100 scale (0 no effect, 100 complete control); for Plant response rating, Wheat: 125 g ai/ha; for Wheat plant response rating: 500 g ai/ha, visual injury vs untreated controls after approx. 10 days
Outline: as §2

[10] = system: Ryegrass, Italian (Italian ryegrass, Lolium multiflorum); test: Test A preemergence, Ryegrass, Italian; conditions: Preemergence, 0 to 100 scale (0 no effect, 100 complete control)
Outline: as §1

[11] = system: Foxtail, Giant (giant foxtail, Setaria faberi); test: Test A postemergence, Foxtail, Giant; conditions: Postemergence, 0 to 100 scale (0 no effect, 100 complete control); for Plant response rating, Foxtail, Giant: 125 g ai/ha; for Foxtail, Giant plant response rating: 500 g ai/ha, visual injury vs untreated controls after approx. 10 days
Outline: as §1

[12] = system: pigweed (Amaranthus retroflexus); test: Test A postemergence, pigweed; conditions: Postemergence, 0 to 100 scale (0 no effect, 100 complete control); for Plant response rating, Pigweed: 125 g ai/ha; for Pigweed plant response rating: 500 g ai/ha, visual injury vs untreated controls after approx. 10 days
Outline: as §1

[13] = system: Foxtail, Giant (giant foxtail, Setaria faberi); test: Test A preemergence, Foxtail, Giant; conditions: Preemergence, 0 to 100 scale (0 no effect, 100 complete control)
Outline: as §1

[14] = system: galium (catchweed bedstraw, Galium aparine); test: Test A postemergence, galium; conditions: Postemergence, 0 to 100 scale (0 no effect, 100 complete control); for Plant response rating, Galium: 125 g ai/ha; for Galium plant response rating: 500 g ai/ha, visual injury vs untreated controls after approx. 10 days
Outline: as §2

[15] = system: ragweed (common ragweed, Ambrosia artemisiifolia); test: Test A preemergence, ragweed; conditions: Preemergence, 0 to 100 scale (0 no effect, 100 complete control)
Outline: as §1

[16] = 125 g ai/ha, visual injury, approx. 10 days

Cc1cc(C)c(N(S(=O)(=O)C(F)(F)F)S(=O)(=O)C(F)(F)F)cc1C(=O)N1CCC(F)(F)CC1 [Compound 210]
30: Plant response rating, Kochia (kochia (Bassia scoparia) [1]; [16]) | Foxtail, Giant plant response rating [11]
100: Plant response rating, Barnyardgrass ([2]; 500 g ai/ha) | Plant response rating, Pigweed [6, 16] | Plant response rating, Pigweed ([6]; 500 g ai/ha) | Plant response rating, Ryegrass, Italian ([10]; 500 g ai/ha) | Pigweed plant response rating [12] | Plant response rating, Foxtail, Giant ([13]; 500 g ai/ha)
0: Plant response rating, Blackgrass [7] | Blackgrass plant response rating [7] | Plant response rating, Wheat [9] | Plant response rating, Foxtail, Giant [11]
90: Plant response rating, Kochia (kochia (Bassia scoparia) [1]; 500 g ai/ha) | Plant response rating, Barnyardgrass [2, 16] | Barnyardgrass plant response rating [4] | Ragweed plant response rating [5] | Kochia plant response rating (kochia (Bassia scoparia) [8]) | Plant response rating, Foxtail, Giant [13, 16] | Galium plant response rating [14] | Plant response rating, Ragweed ([15]; 500 g ai/ha)
20: Plant response rating, Ryegrass, Italian [3] | Plant response rating, Barnyardgrass [4]
60: Wheat plant response rating [9] | Plant response rating, Pigweed [12]
80: Plant response rating, Ragweed [5] | Plant response rating, Galium [14] | Plant response rating, Ragweed [15, 16]
10: Plant response rating, Corn (corn (Zea mays))
40: Ryegrass, Italian plant response rating [3] | Corn plant response rating (corn (Zea mays))
50: Plant response rating, Kochia (kochia (Bassia scoparia) [8]) | Plant response rating, Ryegrass, Italian [10, 16]

Cc1cc(F)c(C(=O)N2CCCCC2)cc1NS(=O)(=O)C(F)(F)F [Compound 211]
20: Plant response rating, Pigweed [6, 16]
60: Plant response rating, Barnyardgrass [2, 16] | Ragweed plant response rating [5] | Pigweed plant response rating [12] | Plant response rating, Foxtail, Giant [13, 16] | Plant response rating, Galium [14]
70: Plant response rating, Ryegrass, Italian ([10]; 500 g ai/ha) | Galium plant response rating [14]
50: Kochia plant response rating (kochia (Bassia scoparia) [8]) | Plant response rating, Ryegrass, Italian [10, 16] | Foxtail, Giant plant response rating [11]
0: Plant response rating, Corn (corn (Zea mays)) | Corn plant response rating (corn (Zea mays)) | Plant response rating, Barnyardgrass [4] | Plant response rating, Blackgrass [7] | Blackgrass plant response rating [7] | Plant response rating, Wheat [9] | Wheat plant response rating [9] | Plant response rating, Foxtail, Giant [11]
90: Plant response rating, Kochia (kochia (Bassia scoparia) [1]; 500 g ai/ha) | Plant response rating, Barnyardgrass ([2]; 500 g ai/ha) | Plant response rating, Pigweed ([6]; 500 g ai/ha) | Plant response rating, Foxtail, Giant ([13]; 500 g ai/ha)
80: Plant response rating, Kochia (kochia (Bassia scoparia) [1]; [16]) | Plant response rating, Ragweed ([15]; 500 g ai/ha)
30: Ryegrass, Italian plant response rating [3] | Barnyardgrass plant response rating [4] | Plant response rating, Ragweed [5] | Plant response rating, Ragweed [15, 16]
40: Plant response rating, Ryegrass, Italian [3] | Plant response rating, Pigweed [12]
10: Plant response rating, Kochia (kochia (Bassia scoparia) [8])

Cc1cc(F)c(C(=O)N2CCCCC2)cc1N(S(=O)(=O)C(F)(F)F)S(=O)(=O)C(F)(F)F [Compound 212]
10: Corn plant response rating (corn (Zea mays))
60: Pigweed plant response rating [12]
90: Plant response rating, Kochia (kochia (Bassia scoparia) [1]; 500 g ai/ha) | Plant response rating, Barnyardgrass ([2]; 500 g ai/ha) | Plant response rating, Pigweed [6, 16] | Plant response rating, Pigweed ([6]; 500 g ai/ha) | Plant response rating, Foxtail, Giant ([13]; 500 g ai/ha)
0: Plant response rating, Barnyardgrass [2, 16] | Plant response rating, Ryegrass, Italian [3] | Plant response rating, Corn (corn (Zea mays)) | Plant response rating, Barnyardgrass [4] | Barnyardgrass plant response rating [4] | Plant response rating, Blackgrass [7] | Blackgrass plant response rating [7] | Plant response rating, Wheat [9] | Wheat plant response rating [9] | Plant response rating, Foxtail, Giant [11] | Plant response rating, Ragweed [15, 16]
50: Ryegrass, Italian plant response rating [3] | Plant response rating, Galium [14]
20: Plant response rating, Ragweed [5] | Ragweed plant response rating [5] | Plant response rating, Kochia (kochia (Bassia scoparia) [8]) | Foxtail, Giant plant response rating [11] | Plant response rating, Pigweed [12] | Plant response rating, Foxtail, Giant [13, 16]
30: Plant response rating, Kochia (kochia (Bassia scoparia) [1]; [16]) | Plant response rating, Ryegrass, Italian [10, 16] | Plant response rating, Ragweed ([15]; 500 g ai/ha)
70: Kochia plant response rating (kochia (Bassia scoparia) [8]) | Plant response rating, Ryegrass, Italian ([10]; 500 g ai/ha) | Galium plant response rating [14]

From patent US20230278972A1, “SUBSTITUTED HALOALKYL SULFONANILIDE HERBICIDES” (FMC Corporation, priority 2020, published 2023)
